Active and inactive are the calls of the source. The calls are words filed in the database; no cut-off is given here.
What was measured:
Trachea [1] = experiment: Myorelaxant effect in Sprague-Dawley rat tracheal ring assessed as […] relaxation of carbachol-induced smooth muscle contraction by organ bath assay; format: functional, tissue-based
Trachea [2] = experiment: Myorelaxant effect in Sprague-Dawley rat tracheal ring assessed as relaxation of carbachol-induced smooth muscle contraction by organ bath assay; format: functional
PANC-1 = experiment: Cytotoxicity against human PANC-1 assessed as cell viability measured for 72 hrs by cell titer glo luminescent assay; format: functional, cell-based; conditions: for IC50: PANC-1, 72 h
MRC5 = experiment: Cytotoxicity against human MRC5 assessed as cell viability measured for 72 hrs by cell titer glo luminescent assay; format: cell-based; conditions: for IC50: Homo sapiens, MRC5, 72 h
ASPC1 = experiment: Cytotoxicity against human ASPC1 assessed as cell viability measured for 72 hrs by cell titer glo luminescent assay; format: functional, cell-based; conditions: for IC50: ASPC1, 72 h
SW1990 = experiment: Cytotoxicity against human SW1990 assessed as cell viability measured for 72 hrs by cell titer glo luminescent assay; format: functional, cell-based; conditions: for IC50: SW1990, 72 h
BXPC-3 = experiment: Cytotoxicity against human BXPC-3 assessed as cell viability measured for 72 hrs by cell titer glo luminescent assay; format: functional, cell-based; conditions: for IC50: BXPC-3, 72 h

Compound | EC50 (Trachea [1]) [µM] | Emax (Trachea [2]) [%] | IC50 (PANC-1) [µM] | IC50 (MRC5) [µM] | IC50 (ASPC1) [µM] | IC50 (SW1990) [µM] | IC50 (BXPC-3) [µM] | Activity (PANC-1) | Activity (MRC5; human, mrc5, 72 h, time 72 hrs) | Activity (ASPC1) | Activity (SW1990) | Activity (BXPC-3)
O=CN1C2CCC1CC(OC(=O)c1ccccc1)C2 (configuration not stated) | 3.61 | 97 |  |  |  |  |  |  |  |  |  | 
O=C(/C=C/c1ccccc1)OC1CC2CCC(C1)N2C(CC(=O)OC1CC2CCC(C1)N2C(CC(=O)OC1CC2CCC(C1)N2)c1ccccc1)c1ccccc1 (racemic) |  |  | 1.1 | 4.2 | 3.4 | 5.2 | 2.2 |  |  |  |  | 
O=C(/C=C/c1ccccc1)OC1CC2CCC(C1)N2C(=O)CCc1ccc(O)cc1 (configuration not stated) | 24.2 | 106 |  |  |  |  |  |  |  |  |  | 
CN1[C@@H]2CC[C@H]1C[C@@H](OC(=O)C(CO)c1ccccc1)C2 (mixture of isomers) [ATROPINE] | 0.00098 | 112 |  |  |  |  |  |  |  |  |  | 
O=C(/C=C/c1ccccc1)OC1CC2CCC(C1)N2[C@H](CC(=O)OC1CC2CCC(C1)N2)c1ccccc1 (some centres not stated) |  |  | 9.9 | > 10 | 7.7 | > 10 | 6.6 |  |  |  |  | 
O=C(/C=C/c1ccccc1)OC1CC2CCC(C1)N2 (configuration not stated) | 0.44 | 82.5 |  |  |  |  |  | inactive | Non-Toxic | inactive | inactive | inactive
O=C(OC1CC2CCC(C1)N2)c1ccccc1 (configuration not stated) | 7.83 | 101 |  |  |  |  |  |  |  |  |  | 
Nc1ccn([C@@H]2O[C@H](CO)[C@@H](O)C2(F)F)c(=O)n1 [GEMCITABINE] |  |  | 30 | 35.1 | 29.1 | 25.4 | 25.9 |  |  |  |  | 
O=C(/C=C/c1ccccc1)OC1CC2CCC(C1)N2[C@@H](CC(=O)OC1CC2CCC(C1)N2)c1ccccc1 (some centres not stated) |  |  | 10.4 | 8.4 | 5.8 | > 10 | 5.5 |  |  |  |  | 
O=C(/C=C/c1ccccc1)OC1CC2CCC(C1)N2C(CC(=O)OC1CC2CCC(C1)N2)c1ccccc1 (racemic) | 10.4 | 71.9 | 10.6 | 9.8 | 6 | > 10 | 4.6 |  |  |  |  | 

Reference: ChEMBL document CHEMBL5034021, “Monomeric, Dimeric, and Trimeric Tropane Alkaloids from Pellacalyx saccardianus” (J Nat Prod, 2021)
